In US5087704A, “Cyanine compounds” (Asahi Chemical Co., Ltd., priority 1988, dated 1992):

Legend:
[1] = Wavelength at maximum absorption and molar absorptivity of the cyanine compounds; type: physicochemical
Solubility in solvent = type: physicochemical; conditions: diacetone alcohol, room temperature
Protocol: Each of cyanine dyes as shown below in Table 2 was dissolved in diacetone alcohol and the solubility was measured at room temperature.

## CCCCN1C(=CC=CC=CC=CC2=[N+](CCCC)c3cc4c(cc3C2(C)C)OC(C)C4)C(C)(C)c2cc3c(cc21)CC(C)O3 (centres unmarked) [Preparation Example 12]
[1]
  molar absorptivity (ε): 193000 L/mol/cm
[1]; methanol
  wavelength at maximum absorption (λmax): 795 nm

## CC(=O)OCCN1C(=CC=CC=CC=CC2=[N+](CCOC(C)=O)c3cc4c(cc3C2(C)C)CCC4)C(C)(C)c2cc3c(cc21)CCC3 [Preparation Example 8]
[1]
  molar absorptivity (ε): 228000 L/mol/cm
[1]; solvent not given
  wavelength at maximum absorption (λmax): 768 nm

## CC1(C)C(=CC=CC=CC2=[N+](CCO)c3cc4c(cc3C2(C)C)OCO4)N(CCO)c2cc3c(cc21)OCO3 [Preparation Example 10]
Solubility in solvent
  Solubility (g/l): At least 30 g/l
[1]; diacetone alcohol
  wavelength at maximum absorption (λmax): 695 nm

## CCCCN1C(=CC=CC=CC2=[N+](CCCC)c3cc4c(cc3C2(C)C)CCC4)C(C)(C)c2cc3c(cc21)CCC3 [Preparation Example 6]
[1]
  molar absorptivity (ε): 224000 L/mol/cm
[1]; diacetone alcohol
  wavelength at maximum absorption (λmax): 670 nm

## CCN1C(=CC=CC=CC2=[N+](CC)c3cc4c(cc3C2(C)C)OCO4)C(C)(C)c2cc3c(cc21)OCO3 [Preparation Example 2]
Solubility in solvent
  Solubility: 30 mg/mL
[1]; methanol
  wavelength at maximum absorption (λmax): 694 nm

## COCCN1C(=CC=CC=CC=CC2=[N+](CCOC)c3cc4c(cc3C2(C)C)CCC4)C(C)(C)c2cc3c(cc21)CCC3 [Preparation Example 9]
[1]; solvent not given
  wavelength at maximum absorption (λmax): 768 nm

## CCCCN1C(=CC=CC=CC2=[N+](CCCC)c3cc4c(cc3C2(C)C)OCO4)C(C)(C)c2cc3c(cc21)OCO3 [Preparation Example 1]
Solubility in solvent
  Solubility (g/l): At least 30 g/l
[1]
  molar absorptivity (ε): 176000 L/mol/cm
[1]; methanol
  wavelength at maximum absorption (λmax): 696 nm

## COCCN1C(=CC=CC=CC=CC2=[N+](CCOC)c3cc4c(cc3C2(C)C)OCO4)C(C)(C)c2cc3c(cc21)OCO3 [Preparation Example 3]
[1]; methanol
  wavelength at maximum absorption (λmax): 793 nm

## CC1(C)C(=CC=CC=CC=CC2=[N+](CCS(=O)(=O)O)c3cc4c(cc3C2(C)C)OCO4)N(CCS(=O)(=O)O)c2cc3c(cc21)OCO3 [Preparation Example 11]
[1]
  molar absorptivity (ε): 160000 L/mol/cm
[1]; methanol
  wavelength at maximum absorption (λmax): 790 nm

## CCCCN1C(=CC=CC=CC2=[N+](CCCC)c3cc4c(cc3C2(C)C)CC(C)O4)C(C)(C)c2cc3c(cc21)OC(C)C3 (centres unmarked) [Preparation Example 5]
Solubility in solvent
  Solubility (g/l): At least 30 g/l
[1]
  molar absorptivity (ε): 190000 L/mol/cm
[1]; diacetone alcohol
  wavelength at maximum absorption (λmax): 688 nm

## CCOCCN1C(=CC=CC=CC2=[N+](CCOCC)c3cc4c(cc3C2(C)C)CCC4)C(C)(C)c2cc3c(cc21)CCC3 [Preparation Example 7]
Solubility in solvent
  Solubility: 30 mg/mL
[1]
  molar absorptivity (ε): 220000 L/mol/cm
[1]; diacetone alcohol
  wavelength at maximum absorption (λmax): 672 nm

## CCCCN1C(=CC=CC=CC2=[N+](CCCC)c3cc4c(cc3C2(C)C)OC(C)C4)C(C)(C)c2cc3c(cc21)CC(C)O3 (centres unmarked) [Preparation Example 4]
Solubility in solvent
  Solubility (g/l): At least 30 g/l
[1]
  molar absorptivity (ε): 194000 L/mol/cm
[1]; diacetone alcohol
  wavelength at maximum absorption (λmax): 695 nm
